ChEMBL document CHEMBL1135668, “Design, synthesis, structure-activity relationships, and molecular modeling studies of 2,3-diaryl-1,3-thiazolidin-4-ones as potent anti-HIV agents” (J Med Chem, 2002)
Active and inactive are the calls of the source. The calls are words filed in the database; no cut-off is given here.

How the values were obtained:
[1] = system: Human immunodeficiency virus 1; test: Concentration required to reduced HIV-1-induced cytopathic effect by 50%in CEM cells; type: functional; conditions: Human immunodeficiency virus 1, CCRF-CEM
[2] = system: Human immunodeficiency virus 1; test: Cytotoxic concentration (anti-HIV activity) required to reduce […] by 50% in MT-4 cells; type: functional; conditions: Human immunodeficiency virus 1, MT4
[3] = system: Human immunodeficiency virus 1; test: Effective concentration (anti-HIV activity) required to reduce HIV-1 induced cytopathic effect by 50% in MT-4 cells; type: functional, organism-based; conditions: Human immunodeficiency virus 1, MT4
[4] = system: Human immunodeficiency virus 1; test: Effective concentration (anti-HIV activity) required to reduce HIV-1 induced cytopathic effect by 50%in CEM cells; type: functional, organism-based; conditions: Human immunodeficiency virus 1, CCRF-CEM
[5] = system: Human immunodeficiency virus 1; test: Selectivity index as the ratio of CC50 to that of EC50 value in MT cells; type: functional
[6] = Selectivity index as the ratio of CC50 to that of EC50 value in CEM cells; type: functional, CCRF-CEM
[7] = biological target: Human immunodeficiency virus type 1 reverse transcriptase (Human immunodeficiency virus 1, UniProt Q72547); test: HIV-1 reverse transcriptase (RT) activity using Poly (rC)/oligo (dG) as template/primer and [3H]dGTP
[8] = system: Human immunodeficiency virus 1; test: Concentration required to reduce CEM cell viability by 50%; conditions: Human immunodeficiency virus 1, CCRF-CEM
[9] = system: Human immunodeficiency virus 1; test: (§1) Concentration required to reduced HIV-1-induced cytopathic effect by 50% in CEM cells; type: functional; conditions: Human immunodeficiency virus 1, CCRF-CEM
[10] = system: Human immunodeficiency virus 1; test: Effective concentration (anti-HIV activity) required to reduce HIV-1 induced cytopathic effect by 50% in MT-4 cells; NA is Not Active.; type: functional, organism-based; conditions: mt4
[11] = system: Human immunodeficiency virus 1; test: Anti-HIV-1 activity against mutant HIV-1 strain (100Leu-Ile) in CEM cells; type: functional, organism-based; conditions: Human immunodeficiency virus 1, CCRF-CEM
[12] = system: Human immunodeficiency virus 1; test: Anti-HIV-1 activity against mutant HIV-1 strain (103Lys-Asn) in CEM cells; type: functional, organism-based; conditions: Human immunodeficiency virus 1, CCRF-CEM
[13] = system: Human immunodeficiency virus 1; test: Anti-HIV-1 activity against mutant HIV-1 strain (138Glu-Lys) in CEM cells; type: functional, organism-based; conditions: Human immunodeficiency virus 1, CCRF-CEM
[14] = system: Human immunodeficiency virus 1; test: Anti-HIV-1 activity against mutant HIV-1 strain(188 Tyr-His) in CEM cells; type: functional, organism-based; conditions: Human immunodeficiency virus 1, CCRF-CEM
[15] = system: Human immunodeficiency virus 1; test: Anti-HIV-1 activity against mutant HIV-1 strain (HIV-1IIIB) in CEM cells; type: functional, organism-based; conditions: Human immunodeficiency virus 1, CCRF-CEM
[16] = system: Human immunodeficiency virus 1; test: Anti-HIV-1 activity against mutant HIV-1 strain(181 Tyr-Cys) in CEM cells; type: functional, organism-based; conditions: Human immunodeficiency virus 1, CCRF-CEM
[17] = system: Human immunodeficiency virus 1; test: Effective concentration (anti-HIV activity) required to reduce HIV-1 induced cytopathic effect by 50% in MT-4 cells; NA is Not Active; type: functional, organism-based; conditions: mt4
[18] = biological target: Human immunodeficiency virus type 1 reverse transcriptase (Human immunodeficiency virus 1) (UniProt Q72547); test: HIV-1 reverse transcriptase (RT) enzymatic activity was evaluated using Poly (rC)/oligo (dG) as template/primer and [3H]dGTP as radio labelled substrate
[19] = system: Human immunodeficiency virus 1; test: Concentration required to reduce CEM cell viability by 50%; conditions: Human immunodeficiency virus 1, CCRF-CEM; remark: listed apart in the source
[20] = system: Human immunodeficiency virus 1; test: Effective concentration (anti-HIV activity) required to reduce HIV-1 induced cytopathic effect by 50%in CEM cells; NA is Not Active.; type: functional, organism-based; conditions: ccrf-cem
[21] = biological target: Human immunodeficiency virus type 1 reverse transcriptase (Human immunodeficiency virus 1) (UniProt Q72547); test: HIV-1 reverse transcriptase (RT) enzymatic activity was evaluated using Poly (rC)/oligo (dG) as template/primer and [3H]dGTP as radio labeled substrate;NA is not active.
[22] = Selectivity index as the ratio of CC50 to that of EC50 value.; type: functional
[23] = system: Human immunodeficiency virus 1; test: as §1; type: functional, organism-based; conditions: Human immunodeficiency virus 1, CCRF-CEM

Row | SMILES | CC50 [2] [µM] | EC50 [3] [µM] | EC50 [4] [µM] | Selectivity index [5] | Selectivity index [6] | IC50 [7] [µM] | further results
1 | O=C1CSC(c2c(F)cccc2Cl)N1c1ccccn1 (stereo unspecified) | 41.7 | 0.278 | 0.242 | 150 | 791 |  | CC50 [1]: 191 µM
2 | O=C1CSC(c2c(F)cccc2Cl)N1c1ccc(Br)cn1 (stereo unspecified) | 30.7 | 1.24 |  | 25 |  |  | 
3 | O=C1CSC(c2c(F)cccc2F)N1c1ccc(Br)cn1 (stereo unspecified) | 36.1 | 4.85 | 2.5 | 7.4 | 18 | 61.4 | CC50 [8]: 45.8 µM
4 | Cc1cccc(N2C(=O)CSC2c2c(F)cccc2Cl)n1 (stereo unspecified) | 31.9 | 0.053 | 0.04 | 601 | 1108 | 2.85 | CC50 [1]: 44.3 µM
5 | O=C1CSC(c2c(F)cccc2Cl)N1c1cccc(Br)n1 (stereo unspecified) | 30.7 | 0.064 |  | 484 |  |  | 
6 | Cc1ccnc(N2C(=O)CSC2c2c(F)cccc2Cl)c1 (stereo unspecified) | 33.9 | 0.099 | 0.108 | 343 | 525 | 4.12 | CC50 [9]: 56.7 µM
7 | O=C1CSC(c2c(Cl)cccc2Cl)N1c1ccccn1 (stereo unspecified) | 38.5 | 0.178 |  | 216.3 |  |  | 
8 | O=C1CSC(c2c(Cl)cccc2Cl)N1c1ccncc1 (stereo unspecified) | 10 |  |  |  |  |  | EC50 [10]: Not Active
9 | Cc1cc(C)nc(N2C(=O)CSC2c2c(F)cccc2Cl)c1 (stereo unspecified) | 41.6 | 0.042 |  | 986 |  |  | 
10 | Cc1cccc(N2C(=O)CSC2c2c(F)cccc2F)n1 (stereo unspecified) | 126 | 0.082 |  | 1536 |  | 2.9 | EC50 [11]: 0.75 µM; EC50 [12]: 35.9 µM; EC50 [13]: 0.39 µM; EC50 [14]: ≥ 13 µM; EC50 [15]: 0.117 µM; EC50 [16]: ≥ 13 µM
11 | O=C1CSC(c2c(Cl)cccc2Cl)N1c1ccc(Cl)cn1 (stereo unspecified) | 19.2 | 1.78 | 1.86 | 11 | 17 |  | CC50 [9]: 31.1 µM
12 | O=C1CSC(c2c(Cl)cccc2Cl)N1c1cccnc1 (stereo unspecified) | 23.4 |  |  |  |  |  | EC50 [17]: Not Active
13 | O=C1CSC(c2c(Cl)cccc2Cl)N1c1ccc(Br)cn1 (stereo unspecified) | 28.2 | 1.51 | 1.31 | 18.6 | 20 | 56.6 | CC50 [9]: 26 µM
14 | O=C1CSC(c2c(F)cccc2F)N1c1cccc(Br)n1 (stereo unspecified) | 32 | 0.03 | 0.03 | 1066 | >8980 |  | EC50 [11]: 0.94 µM; EC50 [12]: > 11 µM; EC50 [13]: 0.073 µM; EC50 [14]: 1.02 µM; EC50 [15]: 0.026 µM; IC50 [18]: 0.91 µM; EC50 [16]: 1.88 µM; CC50 [19]: > 269 µM
15 | O=C1CSC(c2c(Cl)cccc2Cl)N1c1cccc(Br)n1 (stereo unspecified) | 67.4 | 0.272 | 0.173 | 248 | >1431 |  | CC50 [1]: > 248 µM
16 | Cc1ccnc(N2C(=O)CSC2c2c(F)cccc2F)c1 (stereo unspecified) | 242 | 0.248 |  | 976 |  | 2.84 | 

Row | SMILES | CC50 [2] [µM] | EC50 [3] [µM] | EC50 [4] [µM] | Selectivity index [5] | Selectivity index [6] | IC50 [7] [µM] | further results
17 | O=C1CSC(c2c(F)cccc2F)N1c1ccncc1 (stereo unspecified) | 33.9 |  |  |  |  |  | EC50 [10]: Not Active; EC50 [20]: Not Active; IC50 [21]: inactive; CC50 [8]: 284 µM
18 | Cc1cccc(N2C(=O)CSC2c2c(Cl)cccc2Cl)n1 (stereo unspecified) | 285 | 0.044 |  | 6470 |  | 2.24 | EC50 [11]: 0.15 µM; EC50 [12]: ≥ 60 µM; EC50 [13]: 0.117 µM; EC50 [14]: 16.2 µM; EC50 [15]: 0.073 µM
19 | c1ccc2[nH]c(-c3cscn3)nc2c1 [THIABENDAZOLE] | 19.2 | 0.352 | 1.1 | 54.5 | 45 | 14.6 | EC50 [11]: 3.12 µM; EC50 [12]: 15.6 µM; EC50 [13]: 1.73 µM; EC50 [14]: 4.16 µM; EC50 [15]: 1.39 µM; CC50 [9]: 50 µM; EC50 [16]: 13.8 µM
20 | O=C1CSC(c2c(F)cccc2F)N1c1ccccn1 (stereo unspecified) | > 427 | 0.855 |  | >500 |  |  | 
21 | Cc1cccnc1N1C(=O)CSC1c1c(F)cccc1F (stereo unspecified) | > 319 | 53.5 |  | >6 |  |  | 
22 | Cc1cccnc1N1C(=O)CSC1c1c(Cl)cccc1Cl (stereo unspecified) | 42.6 |  |  |  |  |  | EC50 [10]: Not Active
23 | Cc1cc(C)nc(N2C(=O)CSC2c2c(F)cccc2F)c1 (stereo unspecified) | 43.4 | 0.059 | 0.078 | 735 | >=800 | 4.12 | CC50 [9]: ≥ 62.4 µM
24 | O=C1CSC(c2c(F)cccc2F)N1c1ccc(Cl)cn1 (stereo unspecified) | 29.8 | 7.19 | 4.13 | 4.2 | 11 | 67 | CC50 [8]: 47.1 µM
25 | Cc1cc(C)nc(N2C(=O)CSC2c2c(Cl)cccc2Cl)c1 (stereo unspecified) | 64.1 | 0.09 | 0.13 | 712 | >=2178 |  | CC50 [8]: ≥ 283 µM
26 | O=C1CSC(c2c(F)cccc2F)N1c1cccnc1 (stereo unspecified) | > 427 | 95.1 |  |  |  |  | Selectivity index [22]: > 4.5
27 | O=C1CSC(c2c(F)cccc2Cl)N1c1ccc(Cl)cn1 (stereo unspecified) | 29.4 | 2.13 |  |  |  |  | Selectivity index [22]: 14
28 | Cc1ccc(N2C(=O)CSC2c2c(Cl)cccc2Cl)nc1 (stereo unspecified) | 24.9 | 1.41 | 1.32 | 17.7 | 24 | 42.4 | EC50 [23]: 31.2 µM
29 | Cc1ccnc(N2C(=O)CSC2c2c(Cl)cccc2Cl)c1 (stereo unspecified) | > 368 | 0.147 |  | >2500 |  |  | 
30 | Cc1ccc(N2C(=O)CSC2c2c(F)cccc2F)nc1 (stereo unspecified) | 202 | 5.13 |  | 39.3 |  |  | 
31 | O=C1CSC(c2c(Cl)cccc2Cl)N1c1ccccc1 (stereo unspecified) | 38.1 | 0.401 |  | 95 |  |  | 
